{"source": "patent US7563924B2", "about": "“9-chloro-15-deoxyprostaglandin derivatives, process for their preparation and their use as medicaments” (Schering Aktiengesellschaft, priority 2005, dated 2009)", "tested_on": "TNFα release from activated monocytic cells", "assay": "Cytokine release assay in vitro (TNFα, ELISA)", "format": "cell-based, human", "settings": "1 μM, 18 hours", "protocol": "Human donor monocyte-derived dendritic cells are cultured in RPMI-1640 containing 10% fetal bovine serum for six days in the presence of 10 ng/mL IL-4 and 200 ng/mL GM-CSF. The cells are activated with various activation stimuli: 10 ng/mL LPS (Sigma), 5 μg/mL recombinant human CD-40 ligand (R&D Systems), or 5 μM Human CpG-DNA (HyCult Biotechnology) in the presence of prostaglandin E2 (PGE2) (1 μM), vehicle control (DMSO) or test substances (1 μM) for 18 hours. The levels of cell culture supernatant TNFα for individual donors is measured by commercial ELISA kits.", "data": [{"smiles": "CCCCC[C@H](O)/C=C/[C@H]1[C@H](O)CC(=O)[C@@H]1C/C=C\\CCCC(=O)O", "note": "[PGE2, Prostaglandin E2]", "values": [{"measurement": "TNFα", "setting": "CD40 ligand, Donor 3", "value": 147.9, "unit": "pg/mL"}, {"measurement": "TNFα", "setting": "CD40 ligand, Donor 4", "value": 87.0, "unit": "pg/mL"}, {"measurement": "TNFα", "setting": "CD40 ligand, Donor 6", "value": 54.2, "unit": "pg/mL"}, {"measurement": "TNFα", "setting": "CpG, Donor 1", "value": 104.5, "unit": "pg/mL"}, {"measurement": "TNFα", "setting": "CpG, Donor 3", "value": 70.0, "unit": "pg/mL"}, {"measurement": "TNFα", "setting": "CpG, Donor 6", "value": 106.2, "unit": "pg/mL"}, {"measurement": "TNFα", "setting": "LPS, Donor 4", "value": 0.0, "unit": "pg/mL"}, {"measurement": "TNFα", "setting": "LPS, Donor 6", "value": 174.8, "unit": "pg/mL"}]}]}
